Reference: PubChem BioAssay (NCI)
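Grown in 96-well plates, cells were treated for 48 hours with each compound at five concentrations. Insufficient inhibition: endpoint recorded as highest concentration tested. TGI: concentration producing complete growth inhibition.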

How the values were obtained:
Test in all cases: NCI-60 cell line screen, 48 h
[1] = tested on: HOP-92 NSCLC
[2] = tested on: SNB-75 CNS
[3] = tested on: K-562 leukemia
[4] = tested on: NCI/ADR-RES ovarian
[5] = tested on: HT29 colon
[6] = tested on: MALME-3M melanoma
[7] = tested on: SK-MEL-28 melanoma
[8] = tested on: SR leukemia
[9] = tested on: NCI-H226 lung
[10] = tested on: HCT-116 colon
[11] = tested on: 786-0 renal
[12] = tested on: M14 melanoma
[13] = tested on: SF-295 CNS
[14] = tested on: SF-539 CNS
[15] = tested on: HCC-2998 colon
[16] = tested on: KM12 colon

| SMILES | TGI [1] | TGI [2] | TGI [3] | TGI [4] | TGI [5] | TGI [6] | TGI [7] | TGI [8] | TGI [9] | TGI [10] | TGI [11] | TGI [12] | TGI [13] | TGI [14] | TGI [15] | TGI [16] |
| --- | --- | --- | --- | --- | --- | --- | --- | --- | --- | --- | --- | --- | --- | --- | --- | --- |
| O=C(O)c1ccccc1C(=O)NCC1S(=O)(=O)OCCOS1(=O)=O | > 100 µM | > 100 µM | > 100 µM | > 100 µM | > 100 µM | > 100 µM | > 100 µM | > 100 µM | > 100 µM | > 100 µM | > 100 µM | > 100 µM | > 100 µM | > 100 µM | > 100 µM |  |
| CO/C=C/C=C(\C#N)C(=O)OC | > 100 µM | > 100 µM | > 100 µM | > 100 µM | > 100 µM | > 100 µM | > 100 µM | > 100 µM | > 100 µM | > 100 µM | > 100 µM |  | > 100 µM | > 100 µM | > 100 µM | > 100 µM |
| COc1cc(OC)cc(OCc2nc3cc(C(F)(F)F)ccc3nc2-c2ccccc2)c1 | > 100 µM | > 100 µM | > 100 µM | > 100 µM | > 100 µM | > 100 µM | > 100 µM | > 100 µM | > 100 µM | > 100 µM | > 100 µM | > 100 µM | > 100 µM | > 100 µM | > 100 µM | > 100 µM |
| N#C/C(=C\c1ccc(F)cc1)c1nc(-c2cc3ccccc3oc2=O)cs1 | 29.5 µM | 95.9 µM | > 100 µM | > 100 µM | > 100 µM | 52.9 µM | > 100 µM | > 100 µM | > 100 µM | > 100 µM | 37.1 µM | 50.7 µM | 30.3 µM | 65.9 µM | > 100 µM | > 100 µM |
| CC(C)[N+]([O-])(CCCNc1c2ccccc2nc2cccc([N+](=O)[O-])c12)C(C)C | 0.196 µM | 0.629 µM | > 100 µM | 8.76 µM | 1.93 µM | 0.106 µM | 0.175 µM | 1.15 µM | 2.56 µM | 3.94 µM | 10.1 µM | 0.305 µM | 0.904 µM | 0.24 µM | 0.0227 µM | 2.53 µM |
| CCN1CCC(O)(c2ccc(Oc3ccc(Cl)cc3)cc2)C(C(=O)c2ccc(Oc3ccc(Cl)cc3)cc2)C1 (configuration not stated) | 24.8 µM | 26.2 µM | > 100 µM | 39.9 µM | 17.7 µM | 35.6 µM | 58.6 µM | > 100 µM | 34.5 µM | 12.6 µM | 12.3 µM | 28.3 µM | 27.4 µM | 30.3 µM | 25 µM | 14.9 µM |
| COc1ccc2c(c1)Cc1c(NCCN(C)C)ccc(C(=O)NCCCN(C)CCCNC(=O)c3ccc(NCCN(C)C)c4c3Nc3ccc(OC)cc3C4)c1N2 | 2.79 µM | 0.103 µM | 3.14 µM | > 100 µM | 0.566 µM | 0.209 µM | 1.46 µM | 0.502 µM | 0.241 µM | 0.239 µM | 0.985 µM | 1.79 µM | 3.52 µM | 2.24 µM | 0.168 µM | 0.887 µM |
| Cc1cc(S(=O)(=O)NC2=NCc3nc4ccccc4n32)c(S)cc1Cl | 47.2 µM | 60.4 µM | > 100 µM | 54.6 µM |  | 56.2 µM | > 100 µM | 49.4 µM | 40.9 µM | 34.5 µM | 47.8 µM | 63 µM | 37.6 µM | 42.7 µM | 35.7 µM | 38 µM |
| c1csc(-c2nn3c(C45CC6CC(CC(C6)C4)C5)nnc3s2)c1 | > 100 µM | > 100 µM | > 100 µM | > 100 µM | > 100 µM | > 100 µM | > 100 µM | > 100 µM | > 100 µM | > 100 µM | > 100 µM | > 100 µM | > 100 µM | > 100 µM | > 100 µM |  |
| CCOC1OC(COC(=O)C(C)(C)C)C(O)CC1n1cc(C)c(=O)[nH]c1=O (configuration not stated) | > 100 µM | > 100 µM | > 100 µM | > 100 µM | > 100 µM | > 100 µM | > 100 µM | > 100 µM | > 100 µM | > 100 µM | > 100 µM | > 100 µM | > 100 µM | > 100 µM | > 100 µM | > 100 µM |
| Cc1cc(NC2=CC(=O)C(=O)c3ccccc32)no1 | 30.1 µM | 23 µM | 20.1 µM | 15.6 µM | 28.3 µM | 5.92 µM | 31.6 µM | > 48.1 µM | 35.9 µM | 34.4 µM | 30.4 µM | 28.3 µM | 21.6 µM | 13.4 µM | 35.2 µM | 29.7 µM |
